Reference: patent EP4603105A1, “PHARMACEUTICAL COMPOSITION CONTAINING CYCLIC COMPOUND HAVING SELECTIVE KRAS INHIBITORY EFFECT AGAINST HRAS AND NRAS” (CHUGAI SEIYAKU KABUSHIKI KAISHA, priority 2022, dated 2024)
Where a SMILES comes first, the peptide text is derived from it. Bridges are numbered along the chain shown (N, C = ends). [ ]: non-standard residue; d: D form. The star is where a group is joined. hPhe(3,5-F2-4-CF3) = N[C@@H](CCc1cc(F)c(C(F)(F)F)c(F)c1)C(=O)O; hPhe(3-Cl-4-CF3) = N[C@@H](CCc1ccc(C(F)(F)F)c(Cl)c1)C(=O)O; NPrPhe(4-CF3) = CCCN[C@@H](Cc1ccc(C(F)(F)F)cc1)C(=O)O; NMeGly(cPent) = CN[C@H](C(=O)O)C1CCCC1; NMeD = CN[C@@H](CC(=O)O)C(=O)O; NMeL = CN[C@@H](CC(C)C)C(=O)O; αMeV = CC(C)[C@](C)(N)C(=O)O; Azetidin(1-yl) = C1CN(*)C1; NMeA = CN[C@@H](C)C(=O)O; Ac5c = NC1(C(=O)O)CCCC1; Aze = O=C(O)[C@@H]1CCN1; Sar = CNCC(=O)O

How the values were obtained:
[1] = tested on: human lung cancer strain NCI-H441; type: cell-based
Procedure, shortened: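 Step one: dispense the test compound in serial DMSO dilutions. Step three: add the reagent and measure […].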

HRAS wild-type protein = HRAS wild-type protein (Homo sapiens, UniProt P01112); test: Binding to HRAS by surface plasmon resonance (SPR), KD and KD ratio to KRAS
HRAS wild-type protein, sequence (P01112 whole entry): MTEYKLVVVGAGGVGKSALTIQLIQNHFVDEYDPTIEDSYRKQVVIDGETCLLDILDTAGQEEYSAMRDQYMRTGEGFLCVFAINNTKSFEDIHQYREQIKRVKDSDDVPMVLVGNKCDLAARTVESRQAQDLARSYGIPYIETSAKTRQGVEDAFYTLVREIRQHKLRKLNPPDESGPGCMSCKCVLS
Procedure, shortened: (§1)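 Biotinylated GDP-bound RAS was captured at about 100–300 RU. Running buffer: HBS pH 7.4, 10 mM MgCl2, 10 µM GDP, 1 mM DTT, 0.01% Tween 20, 4% DMSO.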

[2] = target: GDP-bound NRAS wild-type protein (Homo sapiens, UniProt P01111); test: Binding to NRAS by surface plasmon resonance (SPR), KD and KD ratio to KRAS
GDP-bound NRAS wild-type protein, sequence (P01111 whole entry): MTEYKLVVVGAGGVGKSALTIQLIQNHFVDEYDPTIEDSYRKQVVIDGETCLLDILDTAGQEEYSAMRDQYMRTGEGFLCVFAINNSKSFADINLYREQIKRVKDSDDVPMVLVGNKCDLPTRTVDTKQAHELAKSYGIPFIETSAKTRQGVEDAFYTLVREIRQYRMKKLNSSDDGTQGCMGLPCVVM
Procedure, shortened: as §1

[3] = ratio of KD for HRAS wild-type protein to KD for KRAS
[4] = ratio of KD for GDP-bound NRAS wild-type protein to KD for KRAS
[5] = ratio of the KD value with respect to HRAS wild-type protein to the KD value with respect to KRAS
[6] = ratio of the KD value with respect to GDP-bound NRAS wild-type protein to the KD value with respect to KRAS

| Compound | IC50 [1] [nM] | HRAS /KRAS (HRAS wild-type protein; [3]) | NRAS /KRAS [2, 4] | HRAS /KRAS (HRAS wild-type protein; [5]) | NRAS /KRAS [2, 6] | HRAS /KRAS (HRAS wild-type protein; ratio of KD value for HRAS wild-type protein to KD value for KRAS (SPR)) | NRAS /KRAS ([2]; ratio of KD value for GDP-bound NRAS wild-type protein to KD value for KRAS (SPR)) |
| --- | --- | --- | --- | --- | --- | --- | --- |
| CC[C@H](C)[C@@H]1NC(=O)[C@H](CC(C)C)N(C)C(=O)C[C@@H](C(=O)N2CCOCC2)N(C)C(=O)[C@H](C2CCCC2)N(C)C(=O)C(C)(C)NC(=O)[C@@H]2CCCN2C(=O)[C@H](CCc2cc(F)c(C(F)(F)F)c(F)c2)NC(=O)CN(C)C(=O)[C@H](Cc2ccc(C(F)(F)F)cc2)N2CCCCC[C@@H](C2=O)N(C)C(=O)CN(C)C1=O [PP0503] | 283 | – | – | B (a compound having 3 or more and less than 10 is denoted as B) | A (a compound having 10 or more and less than 20 is denoted as A) | – | – |
| CCCN1C(=O)[C@@H]2CCN2C(=O)[C@H](C)N(C)C(=O)[C@H]([C@@H](C)CC)NC(=O)[C@H](CC(C)C)N(C)C(=O)C[C@@H](C(=O)N2CCC2)N(C)C(=O)[C@H](C2CCCC2)N(C)C(=O)C2(CCCC2)NC(=O)[C@@H]2CCCN2C(=O)[C@H](CCc2ccc(C(F)(F)F)c(Cl)c2)NC(=O)CN(C)C(=O)[C@@H]1Cc1ccc(C(F)(F)F)cc1 [PP0181] ([NMeL]I[NMeA][Aze][NPrPhe(4-CF3)][Sar][hPhe(3-Cl-4-CF3)]P[Ac5c][NMeGly(cPent)][NMeD]-{Azetidin(1-yl)}; lactam N-11) | 1.5 | B (a compound having 3 or more and less than 10 is denoted as B) | C (A compound having a KD ratio of 0.1 or more and less than 3 is denoted as C) | – | – | – | – |
| CCO[C@@H]1C[C@H]2C(=O)NC3(CCC3)C(=O)N(C)[C@@H](C3CCCC3)C(=O)N(C)C(C(C)C)CC(=O)N(C)[C@@H](CC)C(=O)N[C@@H]([C@@H](C)CC)C(=O)N(C)CC(=O)N(C)[C@H]3C/C=C\CCN(C3=O)[C@@H](Cc3ccc(C(F)(F)F)cc3)C(=O)N(C)CC(=O)N[C@@H](CCc3cc(F)c(C(F)(F)F)c(F)c3)C(=O)N2C1 (stereo partly drawn) [PP1590] | 8 | – | – | – | – | B (a compound having 3 or more and less than 10 is denoted as B) | A (a compound having 10 or more and less than 20 is denoted as A) |

Second part, led by results:

| IC50 [1] [nM] | Compound | HRAS /KRAS (HRAS wild-type protein; [3]) | NRAS /KRAS [2, 4] | HRAS /KRAS (HRAS wild-type protein; [5]) | NRAS /KRAS [2, 6] | HRAS /KRAS (HRAS wild-type protein; ratio of KD value for HRAS wild-type protein to KD value for KRAS (SPR)) | NRAS /KRAS ([2]; ratio of KD value for GDP-bound NRAS wild-type protein to KD value for KRAS (SPR)) |
| --- | --- | --- | --- | --- | --- | --- | --- |
| 11.9 | C#CC[C@H]1C(=O)N[C@@H]([C@@H](C)CC)C(=O)N(C)CC(=O)N(C)[C@H]2C/C=C\CCN(C2=O)[C@@H](Cc2ccc(C)cc2)C(=O)N(C)CC(=O)N[C@@H](CCc2ccc(C(F)(F)F)c(Cl)c2)C(=O)N2CC3(CC3)C[C@H]2C(=O)NC2(CC(C)(C)C2)C(=O)N(C)[C@@H](C2CCCC2)C(=O)N(C)[C@H](C(=O)N(C)C)CC(=O)N1C [PP2982] | A (a compound having 10 or more and less than 20 is denoted as A) | A (a compound having 10 or more and less than 20 is denoted as A) | – | – | – | – |
| 5.8 | CCCOC[C@H]1C(=O)N[C@@H]([C@@H](C)CC)C(=O)N2CCC[C@H]2C(=O)N(C)[C@H]2C/C=C\CCN(C2=O)[C@@H](Cc2ccc(C(F)(F)F)cc2)C(=O)N(C)CC(=O)N[C@@H](CCc2ccc(C(F)(F)F)c(OC)c2)C(=O)N2C[C@H](OCC)C[C@H]2C(=O)N(C)C2(CCC2)C(=O)N(C)[C@@H](C2CCCC2)C(=O)N(C)[C@H](C(=O)N(C)C)CC(=O)N1C [PP2322] | – | – | B (a compound having 3 or more and less than 10 is denoted as B) | A (a compound having 10 or more and less than 20 is denoted as A) | – | – |
| 40.9 | CCCN1C(=O)CN(C)C(=O)CN(C)C(=O)[C@H]([C@@H](C)CC)NC(=O)[C@H](CC(C)C)N(C)C(=O)C[C@@H](C(=O)N(C)C)N(C)C(=O)[C@H](C2CCCC2)N(C)C(=O)[C@](C)(C(C)C)NC(=O)[C@@H]2CCCN2C(=O)[C@H](CCc2cc(F)c(C(F)(F)F)c(F)c2)NC(=O)CN(C)C(=O)[C@@H]1Cc1ccc(C(F)(F)F)cc1 [PP0735] ([NMeL]I[Sar][Sar][NPrPhe(4-CF3)][Sar][hPhe(3,5-F2-4-CF3)]P[αMeV][NMeGly(cPent)][NMeD]-NMe2; lactam N-11) | – | – | C (A compound having a KD ratio of 0.1 or more and less than 3 is denoted as C) | B (a compound having 3 or more and less than 10 is denoted as B) | – | – |
